The target in assay [1] is RAC-alpha serine/threonine-protein kinase (Mus musculus) (UniProt P31750). The experiment in a line: Increase in Akt phosphorylation in TSC1-deficient mouse embryo fibroblasts assessed as Ser 473 phosphorylation at 100 nM after 24 hrs by Western blot.
Assay [2] in a line: Antiproliferative activity against TSC1-deficient mouse embryo fibroblasts assessed as decrease in cell number at 100 nM after 2 day relative to control. Format: functional, Fibroblast. Set-up: scale not given: the % may be the effect or the level left.
For assay [3], the target named is T1, Serine/threonine-protein kinase mTOR (Homo sapiens, UniProt P42345). As to the kind of experiment: Inhibition of mTOR.
Assay [4] addresses T1, Serine/threonine-protein kinase mTOR. As to the kind of experiment: Inhibition of PDGF-activated mTOR signaling in rat-1 fibroblasts assessed as Akt Ser473 site phosphorylation by Western blot.
For assay [5] the target is unchanged. The experiment in a line: Inhibition of PDGF-activated mTOR signaling in rat-1 fibroblasts assessed as S6K1 Thr389 site phosphorylation by Western blot.
Assay [6] deals with DNA-dependent protein kinase catalytic subunit (Homo sapiens, UniProt P78527). The experiment in a line: Inhibition of DNA-PK.
Assay [7] deals with Casein kinase II subunit alpha (Homo sapiens) (UniProt P68400). The experiment in a line: Inhibition of CSNK2A1 at 5 uM.
Chain of Casein kinase II subunit alpha (Homo sapiens) (P68400 whole entry, looked up): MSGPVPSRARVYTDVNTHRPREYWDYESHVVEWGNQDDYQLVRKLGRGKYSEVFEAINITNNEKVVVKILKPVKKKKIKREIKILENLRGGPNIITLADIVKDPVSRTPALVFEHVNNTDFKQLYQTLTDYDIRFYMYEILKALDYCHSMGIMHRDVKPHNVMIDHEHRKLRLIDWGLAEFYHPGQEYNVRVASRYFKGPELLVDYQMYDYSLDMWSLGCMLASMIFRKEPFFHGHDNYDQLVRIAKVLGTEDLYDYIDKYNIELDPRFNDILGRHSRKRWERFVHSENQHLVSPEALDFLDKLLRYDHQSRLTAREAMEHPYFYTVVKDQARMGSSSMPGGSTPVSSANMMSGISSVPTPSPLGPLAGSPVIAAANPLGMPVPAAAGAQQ
In assay [8] the target is PI3-kinase p110-alpha/p85-alpha (Homo sapiens, UniProt P42336). The experiment in a line: Inhibition of p110alpha/p85-alpha PI3K. Format: protein-complex assay.
For assay [9], the target named is T1, Serine/threonine-protein kinase mTOR. As to the kind of experiment: Inhibition of mTOR kinase activity in epitope-tagged AU1 immunoprecipitates expressed in human 293F cells at 5 uM by autoradiography. Format: cell-based.
Assay [10] has the same target. The experiment in a line: Inhibition of mTOR kinase activity in raptor immunoprecipitates expressed in human 293F cells at 10 uM by autoradiography. Format: cell-based.
In assay [11] the target is Phosphatidylinositol 4,5-bisphosphate 3-kinase catalytic subunit alpha isoform (Homo sapiens) (UniProt P42336). The experiment in a line: Inhibition of p110-alpha PI3K assessed as p85alpha autophosphorylation at 25 uM by autoradiography.
Assay [12] has as its target Tyrosine-protein kinase ABL1 (Homo sapiens) (UniProt P00519). The experiment in a line: Inhibition of ABL1 at 5 uM.
Assay [13] concerns the target RAC-alpha serine/threonine-protein kinase (Homo sapiens) (UniProt P31749). As to the kind of experiment: Inhibition of AKT1 at 5 uM.
The target of assay [14] is Tyrosine-protein kinase BTK (Homo sapiens) (UniProt Q06187). As to the kind of experiment: Inhibition of BTK at 5 uM.
Assay [15] concerns the target Cyclin-dependent kinase 1/cyclin B1 (Homo sapiens) (UniProt P06493+P14635). The experiment in a line: Inhibition of CDK1/Cyclin B at 5 uM. Format: protein-complex assay.
Assay [16] has as its target Serine/threonine-protein kinase Chk1 (Homo sapiens) (UniProt O14757). The experiment in a line: Inhibition of CHEK1 at 5 uM.
For assay [17], the target named is Casein kinase I isoform gamma-2 (Homo sapiens) (UniProt P78368). The experiment in a line: Inhibition of CSNK1G2 at 5 uM.
Chain of Casein kinase I isoform gamma-2 (Homo sapiens) (P78368 whole entry, looked up, canonical isoform): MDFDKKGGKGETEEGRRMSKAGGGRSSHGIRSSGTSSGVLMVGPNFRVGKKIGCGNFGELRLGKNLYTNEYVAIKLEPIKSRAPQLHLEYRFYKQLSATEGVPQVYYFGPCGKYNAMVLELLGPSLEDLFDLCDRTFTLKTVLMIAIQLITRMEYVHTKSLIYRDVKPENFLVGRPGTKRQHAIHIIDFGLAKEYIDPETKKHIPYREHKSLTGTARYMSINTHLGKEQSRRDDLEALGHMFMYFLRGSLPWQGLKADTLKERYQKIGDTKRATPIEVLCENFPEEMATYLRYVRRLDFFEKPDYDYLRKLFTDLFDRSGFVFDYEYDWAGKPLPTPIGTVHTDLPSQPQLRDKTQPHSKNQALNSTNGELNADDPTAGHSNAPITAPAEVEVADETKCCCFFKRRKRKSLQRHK
Assay [18] has as its target Dual specificity tyrosine-phosphorylation-regulated kinase 3 (Homo sapiens) (UniProt O43781). The experiment in a line: Inhibition of DYRK3 at 5 uM.
In assay [19] the target is Epidermal growth factor receptor (Homo sapiens) (UniProt P00533). The experiment in a line: Inhibition of EGFR at 5 uM.
The target of assay [20] is Receptor-type tyrosine-protein kinase FLT3 (Homo sapiens) (UniProt P36888). The experiment in a line: Inhibition of FLT3 at 5 uM.
Assay [21] addresses Glycogen synthase kinase-3 beta (Homo sapiens) (UniProt P49841). As to the kind of experiment: Inhibition of GSK3B at 5 uM.
The target of assay [22] is Insulin-like growth factor 1 receptor (Homo sapiens) (UniProt P08069). The experiment in a line: Inhibition of IGF1R at 5 uM.
Assay [23] addresses Insulin receptor (Homo sapiens) (UniProt P06213). The experiment in a line: Inhibition of INSR at 5 uM.
Assay [24] concerns the target Interleukin-1 receptor-associated kinase 4 (Homo sapiens) (UniProt Q9NWZ3). The experiment in a line: Inhibition of IRAK4 at 5 uM.
Assay [25] concerns the target Tyrosine-protein kinase JAK3 (Homo sapiens) (UniProt P52333). The experiment in a line: Inhibition of JAK3 at 5 uM.
Assay [26] deals with Vascular endothelial growth factor receptor 2 (Homo sapiens) (UniProt P35968). The experiment in a line: Inhibition of KDR at 5 uM.
Chain of Vascular endothelial growth factor receptor 2 (Homo sapiens) (P35968 whole entry): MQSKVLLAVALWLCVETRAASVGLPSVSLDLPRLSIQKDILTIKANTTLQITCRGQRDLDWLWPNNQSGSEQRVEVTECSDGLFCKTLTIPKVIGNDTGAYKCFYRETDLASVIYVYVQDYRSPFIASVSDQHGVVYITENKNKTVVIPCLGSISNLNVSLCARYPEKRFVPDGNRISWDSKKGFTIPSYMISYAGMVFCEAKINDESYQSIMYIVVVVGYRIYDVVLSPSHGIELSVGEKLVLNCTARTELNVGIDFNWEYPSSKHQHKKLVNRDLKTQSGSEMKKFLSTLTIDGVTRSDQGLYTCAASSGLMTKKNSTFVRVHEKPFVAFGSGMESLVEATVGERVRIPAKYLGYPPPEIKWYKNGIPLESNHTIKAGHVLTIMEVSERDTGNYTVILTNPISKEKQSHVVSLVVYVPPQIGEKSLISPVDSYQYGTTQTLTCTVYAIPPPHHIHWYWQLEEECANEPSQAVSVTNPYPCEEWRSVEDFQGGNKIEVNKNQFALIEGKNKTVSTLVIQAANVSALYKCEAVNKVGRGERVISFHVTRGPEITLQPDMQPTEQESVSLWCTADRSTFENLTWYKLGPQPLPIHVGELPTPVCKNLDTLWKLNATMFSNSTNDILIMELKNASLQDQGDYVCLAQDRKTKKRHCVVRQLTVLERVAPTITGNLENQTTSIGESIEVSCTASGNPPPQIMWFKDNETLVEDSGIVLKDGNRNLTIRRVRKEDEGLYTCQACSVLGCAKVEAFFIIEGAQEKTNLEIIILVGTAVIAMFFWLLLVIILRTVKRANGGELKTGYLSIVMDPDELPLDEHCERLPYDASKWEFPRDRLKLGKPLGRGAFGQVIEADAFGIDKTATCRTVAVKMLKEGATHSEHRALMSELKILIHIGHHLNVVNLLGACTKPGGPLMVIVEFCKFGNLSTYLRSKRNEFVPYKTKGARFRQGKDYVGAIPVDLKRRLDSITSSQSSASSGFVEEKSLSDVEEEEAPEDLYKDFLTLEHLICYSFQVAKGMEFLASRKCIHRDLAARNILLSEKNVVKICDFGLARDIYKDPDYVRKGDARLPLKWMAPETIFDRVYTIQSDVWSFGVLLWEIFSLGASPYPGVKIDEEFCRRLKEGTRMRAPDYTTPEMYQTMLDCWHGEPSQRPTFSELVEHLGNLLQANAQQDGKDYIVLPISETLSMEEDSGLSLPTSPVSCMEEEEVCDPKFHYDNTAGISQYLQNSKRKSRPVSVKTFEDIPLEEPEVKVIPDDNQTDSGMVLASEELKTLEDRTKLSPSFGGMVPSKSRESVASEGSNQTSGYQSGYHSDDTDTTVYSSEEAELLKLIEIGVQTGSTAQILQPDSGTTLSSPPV
The target of assay [27] is Mast/stem cell growth factor receptor Kit (Homo sapiens) (UniProt P10721). As to the kind of experiment: Inhibition of KIT at 5 uM.
The target of assay [28] is Tyrosine-protein kinase Lck (Homo sapiens) (UniProt P06239). The experiment in a line: Inhibition of LCK at 5 uM.
The target in assay [29] is Dual specificity mitogen-activated protein kinase kinase 1 (Homo sapiens) (UniProt Q02750). As to the kind of experiment: Inhibition of MAP2K1 at 5 uM.
Assay [30] has as its target Mitogen-activated protein kinase kinase kinase kinase 4 (Homo sapiens) (UniProt O95819). As to the kind of experiment: Inhibition of MAP4K4 at 5 uM.
Assay [31] addresses Mitogen-activated protein kinase 14 (Homo sapiens) (UniProt Q16539). The experiment in a line: Inhibition of MAPK14 at 5 uM.
The target of assay [32] is MAP kinase-activated protein kinase 2 (Homo sapiens) (UniProt P49137). The experiment in a line: Inhibition of MAPKAPK2 at 5 uM.
Chain of MAP kinase-activated protein kinase 2 (Homo sapiens) (P49137 whole entry, looked up): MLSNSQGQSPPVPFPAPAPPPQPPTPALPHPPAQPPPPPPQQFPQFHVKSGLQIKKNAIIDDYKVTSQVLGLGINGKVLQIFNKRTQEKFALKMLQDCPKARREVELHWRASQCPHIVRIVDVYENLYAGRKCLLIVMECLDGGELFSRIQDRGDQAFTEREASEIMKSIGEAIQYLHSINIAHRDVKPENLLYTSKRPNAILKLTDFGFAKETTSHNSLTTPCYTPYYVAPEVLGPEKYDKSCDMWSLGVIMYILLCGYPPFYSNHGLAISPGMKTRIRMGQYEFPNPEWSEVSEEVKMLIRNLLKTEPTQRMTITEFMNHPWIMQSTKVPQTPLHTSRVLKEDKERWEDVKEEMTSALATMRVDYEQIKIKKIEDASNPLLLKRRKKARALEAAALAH
The target of assay [33] is Hepatocyte growth factor receptor (Homo sapiens) (UniProt P08581). As to the kind of experiment: Inhibition of MET at 5 uM.
The target of assay [34] is Platelet-derived growth factor receptor beta (Homo sapiens) (UniProt P09619). The experiment in a line: Inhibition of PDGFRbeta at 5 uM.
Assay [35] concerns the target Phosphorylase b kinase gamma catalytic chain, liver/testis isoform (Homo sapiens) (UniProt P15735). As to the kind of experiment: Inhibition of PHKG2 at 5 uM.
The target in assay [36] is Serine/threonine-protein kinase pim-1 (Homo sapiens) (UniProt P11309). As to the kind of experiment: Inhibition of PIM1 at 5 uM.
For assay [37], the target named is Protein kinase C beta type (Homo sapiens) (UniProt P05771). The experiment in a line: Inhibition of PRKCB1 at 5 uM.
Assay [38] addresses Proto-oncogene tyrosine-protein kinase receptor Ret (Homo sapiens) (UniProt P07949). The experiment in a line: Inhibition of RET at 5 uM.
The target in assay [39] is Rho-associated protein kinase 1 (Homo sapiens) (UniProt Q13464). The experiment in a line: Inhibition of ROCK1 at 5 uM.
The target of assay [40] is Ribosomal protein S6 kinase alpha-3 (Homo sapiens) (UniProt P51812). The experiment in a line: Inhibition of RPS6KA3 at 5 uM.
In assay [41] the target is Aurora kinase A (Homo sapiens) (UniProt O14965). The experiment in a line: Inhibition of STK6 at 5 uM.
Assay [42] has as its target Angiopoietin-1 receptor (Homo sapiens) (UniProt Q02763). As to the kind of experiment: Inhibition of TEK at 5 uM.
The target in assay [43] is T1, Serine/threonine-protein kinase mTOR. As to the kind of experiment: Inhibition of PDGF-activated mTOR signaling in rat-1 fibroblasts assessed as S6K1 Thr389 site phosphorylation at 10 uM by Western blot.
Assay [44] shares this target. As to the kind of experiment: Inhibition of PDGF-activated mTOR signaling in rat-1 fibroblasts assessed as Akt Ser473 site phosphorylation at 10 uM by Western blot.
Assay [45] relates to Fibroblast. The experiment in a line: Antiproliferative activity against TSC1-deficient mouse embryo fibroblasts assessed as decrease in cell number. Format: functional, cell-based.
The nature of assay [46]: Inhibition of PDGFR in rat-1 cells assessed as PDGF-induced Erk phosphorylation by Western blot. Format: cell-based.
Assay [47] concerns the target Alpha-1A adrenergic receptor (Homo sapiens) (UniProt P35348). As to the kind of experiment: Inhibition of phenylephrine-induced human adrenergic alpha1A receptor activity expressed in rat-1 fibroblasts assessed as S6K1 Thr389 site phosphorylation by Western blot.
The subject of a further assay is COS-7. The experiment in a line: Inhibition of Akt T308D mutant transfected in african green monkey COS7 cells assessed as insulin-induced […] phosphorylation by Western blot. Format: cell-based.
Assay [48] deals with RAC-alpha serine/threonine-protein kinase (Homo sapiens), P31749 [S473D]. The experiment in a line: Inhibition of Akt S473D mutant transfected in african green monkey COS7 cells assessed as insulin-induced […] phosphorylation by Western blot. Conditions: COS-7. Format: cell-based.
The target of assay [49] is T1, Serine/threonine-protein kinase mTOR. As to the kind of experiment: Inhibition of IGF1-activated mTOR signaling in human M059J glioma cells assessed as S6K1 Thr389 site phosphorylation at 10 uM by Western blot. Format: cell-based.
Assay [50] shares this target. As to the kind of experiment: Inhibition of IGF1-activated mTOR signaling in human M059J glioma cells assessed as Akt Ser473 site phosphorylation at 10 uM by Western blot. Format: cell-based.
The target in assay [51] is Ribosomal protein S6 kinase beta-1 (Mus musculus) (UniProt Q8BSK8). The experiment in a line: Blockade of S6K1 phosphorylation in TSC1-deficient mouse embryo fibroblasts assessed as Thr389 phosphorylation at 100 nM after 24 hrs by Western blot.
Chain of Ribosomal protein S6 kinase beta-1 (Mus musculus) (Q8BSK8 whole entry): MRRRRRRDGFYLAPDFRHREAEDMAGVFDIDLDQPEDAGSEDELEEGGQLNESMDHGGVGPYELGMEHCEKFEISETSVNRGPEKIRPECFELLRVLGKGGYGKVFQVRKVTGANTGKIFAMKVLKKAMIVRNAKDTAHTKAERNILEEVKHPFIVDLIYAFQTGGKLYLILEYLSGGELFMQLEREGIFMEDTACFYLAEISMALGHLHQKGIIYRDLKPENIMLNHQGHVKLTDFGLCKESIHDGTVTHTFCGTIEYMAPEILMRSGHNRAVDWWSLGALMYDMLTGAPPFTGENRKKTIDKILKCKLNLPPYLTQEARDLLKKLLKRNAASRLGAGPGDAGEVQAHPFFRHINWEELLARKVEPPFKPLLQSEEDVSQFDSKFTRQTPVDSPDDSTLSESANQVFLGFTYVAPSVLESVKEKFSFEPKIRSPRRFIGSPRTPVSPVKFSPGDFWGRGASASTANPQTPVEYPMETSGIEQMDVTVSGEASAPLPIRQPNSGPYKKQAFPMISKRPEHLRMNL
Assay [52] shares this target. As to the kind of experiment: Blockade of S6K1 phosphorylation in TSC1-deficient mouse embryo fibroblasts assessed as Thr389 phosphorylation at 10 uM after 24 hrs by Western blot.
Assay [53] is described as follows: Antiproliferative activity against TSC1-deficient mouse embryo fibroblasts assessed as decrease in cell number at 10 uM after 1 day relative to control. Format: functional, Fibroblast. Set-up: scale not given: the % may be the effect or the level left.
Assay [54] in a line: Antiproliferative activity against TSC1-deficient mouse embryo fibroblasts assessed as decrease in cell number at 10 uM after 2 day relative to control. Format: functional, Fibroblast. Details: scale not given: the % may be the effect or the level left.
In assay [55] the test system is Fibroblast. The experiment in a line: Induction of apoptosis in TSC1-deficient mouse embryo fibroblasts assessed as level of nucleosomes in cell cytoplasm at 100 nM after 24 hrs. Format: functional, cell-based.
Assay [56] concerns Fibroblast. The experiment in a line: Induction of apoptosis in TSC1-deficient mouse embryo fibroblasts assessed as level of nucleosomes in cell cytoplasm at 10 uM after 24 hrs. Format: functional, cell-based.
For assay [57], the target named is Receptor tyrosine-protein kinase erbB-2 (Homo sapiens) (UniProt P04626). The experiment in a line: Inhibition of ERBB2 at 5 uM.
Assay [58] deals with Fibroblast growth factor receptor 1 (Homo sapiens) (UniProt P11362). As to the kind of experiment: Inhibition of FGFR1 at 5 uM.
Assay [59] addresses Tyrosine-protein kinase SYK (Homo sapiens) (UniProt P43405). The experiment in a line: Inhibition of SYK at 5 uM.
Assay [60] addresses Mitogen-activated protein kinase 3 (Homo sapiens) (UniProt P27361). The experiment in a line: Inhibition of MAPK3 at 5 uM.

Structures are written as SMILES. pIC50: −log10 of the molar value. Calls of active or inactive are those of the source. No cut-off for these calls is given here.

Chain of Glycogen synthase kinase-3 beta (Homo sapiens) (P49841 whole entry, looked up): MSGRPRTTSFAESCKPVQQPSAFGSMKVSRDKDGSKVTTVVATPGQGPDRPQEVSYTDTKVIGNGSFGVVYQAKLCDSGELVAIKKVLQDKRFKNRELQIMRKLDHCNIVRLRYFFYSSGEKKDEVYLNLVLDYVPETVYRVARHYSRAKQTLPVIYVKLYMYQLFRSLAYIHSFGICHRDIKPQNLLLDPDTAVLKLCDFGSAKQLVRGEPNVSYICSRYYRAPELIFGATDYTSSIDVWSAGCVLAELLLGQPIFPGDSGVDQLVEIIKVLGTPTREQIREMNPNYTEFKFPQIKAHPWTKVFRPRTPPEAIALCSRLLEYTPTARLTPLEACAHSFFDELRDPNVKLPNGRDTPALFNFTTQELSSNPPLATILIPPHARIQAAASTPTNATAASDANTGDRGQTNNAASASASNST
Chain of Alpha-1A adrenergic receptor (Homo sapiens) (P35348 whole entry): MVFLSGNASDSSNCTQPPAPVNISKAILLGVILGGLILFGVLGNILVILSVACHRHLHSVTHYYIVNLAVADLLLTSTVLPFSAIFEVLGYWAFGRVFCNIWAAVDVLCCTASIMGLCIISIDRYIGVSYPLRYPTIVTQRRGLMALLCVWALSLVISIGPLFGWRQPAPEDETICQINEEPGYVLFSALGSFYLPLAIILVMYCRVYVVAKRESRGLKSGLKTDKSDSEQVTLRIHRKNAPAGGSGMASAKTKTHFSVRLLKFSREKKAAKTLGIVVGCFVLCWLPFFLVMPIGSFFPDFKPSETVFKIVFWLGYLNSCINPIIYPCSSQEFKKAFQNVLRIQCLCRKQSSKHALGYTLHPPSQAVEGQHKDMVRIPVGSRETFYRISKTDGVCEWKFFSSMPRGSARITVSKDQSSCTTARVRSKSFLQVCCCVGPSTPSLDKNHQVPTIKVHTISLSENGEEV
Chain of Cyclin-dependent kinase 1/cyclin B1 (Homo sapiens) (P06493 whole entry, looked up): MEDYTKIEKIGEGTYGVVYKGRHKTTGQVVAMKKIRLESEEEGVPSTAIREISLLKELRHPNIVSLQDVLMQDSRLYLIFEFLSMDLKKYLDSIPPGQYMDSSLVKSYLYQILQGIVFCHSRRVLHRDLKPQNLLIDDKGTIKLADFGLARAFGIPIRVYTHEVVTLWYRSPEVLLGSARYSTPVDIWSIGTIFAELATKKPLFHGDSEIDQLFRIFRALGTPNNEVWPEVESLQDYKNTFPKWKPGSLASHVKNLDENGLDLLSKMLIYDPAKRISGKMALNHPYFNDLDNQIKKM
Chain of Cyclin-dependent kinase 1/cyclin B1 (Homo sapiens) (P14635 whole entry, looked up): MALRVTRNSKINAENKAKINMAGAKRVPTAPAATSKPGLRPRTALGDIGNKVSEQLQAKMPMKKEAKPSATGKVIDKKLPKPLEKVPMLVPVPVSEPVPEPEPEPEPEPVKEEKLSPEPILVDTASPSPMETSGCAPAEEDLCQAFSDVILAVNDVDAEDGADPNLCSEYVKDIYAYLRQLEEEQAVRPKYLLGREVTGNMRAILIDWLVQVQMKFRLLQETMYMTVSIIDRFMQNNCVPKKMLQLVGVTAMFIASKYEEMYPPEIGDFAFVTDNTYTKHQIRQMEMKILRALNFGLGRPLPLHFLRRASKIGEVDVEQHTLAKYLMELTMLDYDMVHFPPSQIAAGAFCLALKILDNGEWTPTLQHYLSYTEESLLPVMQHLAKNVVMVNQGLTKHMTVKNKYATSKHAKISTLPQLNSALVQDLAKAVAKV

With `CO[C@H]1C[C@@H]2CC[C@@H](C)[C@@](O)(O2)C(=O)C(=O)N2CCCC[C@H]2C(=O)O[C@H]([C@H](C)C[C@@H]2CC[C@@H](O)[C@H](OC)C2)CC(=O)[C@H](C)/C=C(\C)[C@@H](O)[C@@H](OC)C(=O)[C@H](C)C[C@H](C)/C=C/C=C/C=C/1C` [SIROLIMUS], the outcome in [1] was Active. Also, in assay [2], the Activity stood at 57%.

In the case of `O=c1cc(N2CCOCC2)oc2c(-c3ccccc3)cccc12` [LY-294002], the negative-log IC50 (pIC50) in assay [3] was 5.30. For the same compound, the outcome in [4] and in assay [5] was Active.

Consider `O=C(c1ccccc1)c1ccc(N2CCOCC2)cc1O`, for which the figures for the negative logarithm of the IC50 (pIC50) in [3] and in [6] were < 4.00 and 6.57, respectively.

In the case of `O=c1cc(N2CCOCC2)nc2c3ccccc3ccn12`, the inhibition in assay [7] is 3%; in assay [9] it was 67%; in [10], 78%; in assay [12], -5%; in assay [13] it was 5%; in assay [14], 9%. The inhibition in assay [15] is 3%; in [16], -9%; in [17] it was 2%; in assay [18], 5%; in assay [19], -3%; in assay [20], 36%. Also, the inhibition is 0% in assay [21]; -8% in assay [22]; -3% in [23]; -5% in assay [24]; 2% in assay [25]; 0% in [26]. Moreover, the inhibition is 13% in assay [27]; -3% in assay [28]; -8% in assay [29]; 3% in assay [30]; 17% in assay [31]; 40% in assay [32]. Besides, the inhibition is 19% in assay [33]; -4% in assay [34]; -6% in assay [35]; 44% in assay [36]; 8% in [37]; -4% in [38]. For the same compound, the inhibition in assay [39] was 13%; in [40], 7%; in [41], 44%; in [42], 12%; in assay [57] it was 3%; in assay [58], 0%. In addition, the inhibition was 14% in [59] and -3% in [60]. Besides, in assay [8], the negative-log IC50 (pIC50) was < 4.00. Further, the outcome (in assay [11]; in [46]; in the assay on COS-7; in the assay with Fibroblast [55]) was inactive. Also, the outcome in [43], in assay [44], in [47], in assay [48], in assay [49] and in assay [50] was Active. Also, the outcome (in assay [51]; in assay [52]; in the assay on Fibroblast [56]) was Active. For the same compound, the Activity result in the assay with Fibroblast [45] was “Dose-dependent effect”; in [53], 54%; in assay [54], 84%.
